Data on 15 molecules can be found in ChEMBL document CHEMBL1201862, “PubChem BioAssay data set” (2004).

Common to all, as to experiment: NCI anticancer screen, dose series, 48 h
In experiment [1] the test system is ACHN.
The test system of experiment [2] is CCRF-CEM.
In experiment [3] the test system is HCC 2998.
The test system of experiment [4] is HCT-116.
The test system of experiment [5] is LOX IMVI.
Experiment [6] relates to M14.
Experiment [7] relates to Malme-3M.
Experiment [8] relates to NCI-H23.
Experiment [9] deals with NCI-H460.
Experiment [10] relates to OVCAR-3.
The subject of experiment [11] is SF-295.
Experiment [12] relates to SK-MEL-2.
For experiment [13], the system named is UACC-257.
In experiment [14] the test system is IGROV-1.
The subject of experiment [15] is RPMI-8226.

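Following 48 hours of exposure in 96-well plates, responses at five concentrations were used to interpolate endpoints linearly. GI50 = concentration required for 50% inhibition of growth.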 Calls of active or inactive are those of the source. No stated cut-off is given here; in the data, active = GI50 up to about 1.1 µM and inactive = higher.

On to `CCCCN(CCCC)CCCCNc1c(C)cnc2cc(Cl)ccc12`, for which the GI50 is 24.3 µM (inactive) in experiment [1]; 49.1 µM (inactive) in experiment [2]; 14.5 µM (inactive) in [3]; 11.1 µM (inactive) in experiment [4]; 14.2 µM (inactive) in [5]; 1.94 µM (inactive) in experiment [6]. Also, the GI50 in experiment [7] was 21 µM (inactive); in [8], 38.7 µM (inactive); in experiment [9], 30.9 µM (inactive); in [10], 30.2 µM (inactive); in experiment [11] it was 19.1 µM (inactive); in [12], 21.2 µM (inactive). Moreover, the GI50 in [13] is 14.6 µM (inactive).
Take `COc1ccc(/C=C/c2onc3c(=O)n(C)nc(-c4ccccc4)c23)cc1`: the GI50 in experiment [1], in experiment [2], in [4], in [14], in experiment [5] and in experiment [6] was > 100 µM (inactive) each time. The GI50 in experiment [8], in experiment [9] and in experiment [15] was > 100 µM (inactive) throughout.
`COC(=O)c1cc(O)ccc1O` [METHYL 2,5-DIHYDROXYBENZOATE]: the GI50 in experiment [1], in [2], in [3], in [14], in experiment [5] and in experiment [6] was > 100 µM (inactive) in each case. The GI50 in experiment [7], in experiment [9], in [10], in [15], in experiment [11] and in experiment [12] was > 100 µM (inactive) throughout. In experiment [13], the GI50 was > 100 µM (inactive).
As for `CN(C)CCNC(=O)c1ccc(C(=O)NCCN(C)C)c2nc3ccccc3cc12`, the GI50 is 0.637 µM (active) in [1]; 0.676 µM (active) in [2]; 0.9 µM (active) in experiment [3]; 0.301 µM (active) in experiment [4]; 1.62 µM (inactive) in [14]; 0.519 µM (active) in experiment [5]. Moreover, the GI50 in experiment [6] was 1.39 µM (inactive); in experiment [7], 1.38 µM (inactive); in experiment [8] it was 1.71 µM (inactive); in experiment [9], 0.384 µM (active); in experiment [10], 1.77 µM (inactive); in experiment [11] it was 0.895 µM (active). Further, the GI50 was 1.28 µM (inactive) in experiment [12] and 1.62 µM (inactive) in experiment [13].
On to `N#CCCN(CCC#N)c1ccc(/C=C2\N=C(CN3C(=O)c4ccccc4C3=O)OC2=O)cc1`, for which the GI50 in [1], in [3], in experiment [4], in experiment [14], in experiment [5] and in experiment [6] was > 100 µM (inactive) throughout. The GI50 in experiment [7] was > 100 µM (inactive); in [9], > 100 µM (inactive); in [10] it was > 100 µM (inactive); in experiment [15] it was 39.3 µM (inactive); in experiment [11] it was > 100 µM (inactive); in experiment [12], > 100 µM (inactive). Besides, in experiment [13], the GI50 was > 100 µM (inactive).
As for `O=C1/C(=C/c2ccc(C(=O)O)cc2)CNC/C1=C\c1ccc(C(=O)O)cc1`, the GI50 in experiment [1], in experiment [2], in experiment [3], in experiment [4], in experiment [14] and in [6] was > 100 µM (inactive) each time. Moreover, the GI50 in experiment [7], in experiment [8], in experiment [9], in experiment [10], in [15] and in [11] was > 100 µM (inactive) throughout. Also, the GI50 in experiment [13] is > 100 µM (inactive).
For the molecule `O=C(OCCCl)C1OC(n2cc(F)c(=O)[nH]c2=O)CC1O` (configuration not stated), the GI50 is > 100 µM (inactive) in experiment [1]; > 100 µM (inactive) in experiment [2]; 27.7 µM (inactive) in experiment [3]; > 100 µM (inactive) in experiment [4]; > 100 µM (inactive) in [14]; > 100 µM (inactive) in experiment [5]. Also, the GI50 in [6] was > 100 µM (inactive); in [7] it was > 100 µM (inactive); in [8], > 100 µM (inactive); in experiment [9], 92 µM (inactive); in [10], > 100 µM (inactive); in experiment [15] it was > 100 µM (inactive). In addition, the GI50 in experiment [11], in experiment [12] and in experiment [13] was > 100 µM (inactive) throughout.
`O=C1c2ccccc2C2(O)Nc3cc(O)ccc3C12O` (configuration not stated): the GI50 in [1], in [2], in experiment [4], in experiment [14], in [5] and in experiment [6] was > 100 µM (inactive) each time. The GI50 in [7], in experiment [8], in experiment [9], in experiment [10], in experiment [15] and in experiment [11] was > 100 µM (inactive) in each case. Moreover, the GI50 in [12] was > 100 µM (inactive).
In the case of `CN1CCC(c2c(O)cc(O)c3c(=O)cc(-c4ccccc4Cl)oc23)C(O)C1` (configuration not stated), the GI50 is 0.048 µM (active) in experiment [1]; 0.0271 µM (active) in [2]; 0.165 µM (active) in experiment [3]; < 0.01 µM (active) in experiment [4]; 0.0735 µM (active) in [14]; 0.0173 µM (active) in experiment [5]. The GI50 in experiment [6] was 0.111 µM (active); in [7], 0.203 µM (active); in experiment [8], 0.0557 µM (active); in experiment [9], 0.0592 µM (active); in [15], < 0.01 µM (active); in experiment [11] it was < 0.0253 µM (active). The GI50 is 0.0323 µM (active) in experiment [12] and 0.0627 µM (active) in experiment [13].
In the case of `CC(=O)OCc1cc(OC(C)=O)cnc1COC(C)=O`, the GI50 in [1], in experiment [2], in experiment [4], in experiment [14], in [5] and in [6] was > 100 µM (inactive) in each case. The GI50 in experiment [7], in experiment [8], in experiment [9], in experiment [10], in experiment [11] and in [12] was > 100 µM (inactive) in each case. Also, the GI50 in experiment [13] is > 100 µM (inactive).
With `COC(=O)C1CC(c2ccc(Cl)cc2)=NO1` (configuration not stated), the GI50 in [1], in experiment [2], in experiment [3], in [4], in [14] and in [6] was > 100 µM (inactive) in each case. Besides, the GI50 in experiment [7], in experiment [8], in [9], in experiment [10], in experiment [15] and in [11] was > 100 µM (inactive) throughout. Moreover, the GI50 in experiment [12] and in experiment [13] was > 100 µM (inactive) each time.
Consider `Cc1ccc(C2CC(c3ccco3)=NN2c2ccccc2)o1` (configuration not stated), for which the GI50 in experiment [1], in [2], in experiment [4], in experiment [14], in experiment [5] and in experiment [6] was > 100 µM (inactive) throughout. For the same molecule, the GI50 in experiment [7], in experiment [8], in [9], in [10], in experiment [15] and in [11] was > 100 µM (inactive) throughout. Besides, in [12], the GI50 is > 100 µM (inactive).
Regarding `Cc1cc(C)nc(NS(=O)(=O)c2ccc(Nc3c4ccc(Cl)cc4nc4c(C(=O)NCCN(C)C)cccc34)cc2)n1`, the GI50 in [1], in [2], in [3], in experiment [4], in experiment [14] and in experiment [5] was > 100 µM (inactive) in each case. Besides, the GI50 in [6], in [7], in experiment [8], in experiment [9], in experiment [10] and in experiment [15] was > 100 µM (inactive) each time. Further, the GI50 in experiment [11] and in experiment [13] was > 100 µM (inactive) each time.
For the molecule `CC1(C)C(=O)/C=C\C(=O)C(C)(C)C2=CC=C(O2)C(C)(C)C(=O)/C=C\C(=O)C(C)(C)C2=CC=C1O2`, the GI50 in [1], in [2], in [3], in [4], in experiment [14] and in experiment [5] was > 100 µM (inactive) each time. The GI50 in [7], in experiment [8], in experiment [9], in experiment [10], in [11] and in experiment [12] was > 100 µM (inactive) throughout. The GI50 in experiment [13] was > 100 µM (inactive).
With `C/N=C(\NC(=S)N(C)C)N(C)C`, the GI50 in [1], in experiment [2], in [3], in [4], in experiment [14] and in experiment [6] was > 100 µM (inactive) in each case. For the same molecule, the GI50 in experiment [7], in experiment [8], in [9], in experiment [15], in experiment [11] and in experiment [12] was > 100 µM (inactive) in each case. Moreover, in experiment [13], the GI50 was > 100 µM (inactive).
